Experimental data published in patent US8278482B2, “Antimicrobial N-chlorinated compositions” (priority 2008, dated 2012).
Where two headings read alike, the source gives them in different places.

Legend:
Assay type in all cases: cell-based
[1] = tested on: Escherichia coli (MCC 80392); assay: Antimicrobial activity (MBC), E. coli MCC 80392; conditions: 1 h exposure at room temperature
Procedure: (§1) To determine antimicrobial activity, Escherichia coli (ATCC 25922), Staphylococcus aureus (ATCC 29213), Pseudomonas aeruginosa (ATCC 27853), and Candida albicans (ATCC 10231) were used in primary screening. In addition, Escherichia coli (MCC 80392), Staphylococcus aureus (MCC 91731), Pseudomonas aeruginosa (MCC 4438), and Candida albicans (MCC 50319), provided by Alcon Laboratories, Fort Worth, Tex., were used. The microbial cultures were diluted in sterile saline pH 4 to prepare inocula. Test compounds were titrated by stepwise two-fold dilutions in sterile saline pH 4. A total of 1.0×10^5 to 1.0×10^6 Colony Forming Units (CFU)/mL microbe was added to each tube, mixed by gentle vortexing, and then incubated at room temperature for 1 h. Microbial plating on Petri dishes (Tryptic Soy agar or Saboraud's Dextrose agar) was performed immediately after the designated exposure after neutralization of the test article dilutions in Dey-Engley Broth. Plates were incubated at 37° C., and the numbers of microbes were counted by direct colony count to quantitate the surviving microbes as CFU/mL. Positive growth controls were made with sterile 0.9% saline. Compounds were dissolved in unbuffered isotonic saline (SAL) or phosphate buffered saline (PBS) at pH 4 or pH 7 (using HCl and/or NaOH as needed). All compounds were tested three times. The results are tabulated to show the comparison of antimicrobial effectiveness range of the compounds.
(§2) Data shown are the Minimum Bactericidal Concentration (MBC) or Minimum Fungicidal Concentration (MFC) (≧99.9% kill) in μg/mL.

[2] = tested on: Staphylococcus aureus (MCC 91731); assay: Antimicrobial activity (MBC), S. aureus MCC 91731; conditions: 1 h exposure at room temperature
Procedure: as §1, §2

[3] = tested on: Candida albicans (ATCC 10231); assay: Antimicrobial activity (MFC), C. albicans ATCC 10231
Procedure: as §1, §2

[4] = tested on: mouse fibroblast cells (ATCC CCL-1, L929); assay: Cytotoxicity, WST-8 colorimetric assay; conditions: 60 min exposure
Procedure: Cytotoxicity was assessed by a colorimetric assay system using the Dojindo™ cell counting kit containing 2-(2-methoxy-4-nitrophenyl)-3-(4-nitrophenyl)-5-(2,4-disulfophenyl)-2H-tetrazolium, monosodium salt (WST-8). In this assay, the WST-8 reagent was bioreduced by cellular dehydrogenases to a formazan product that is highly soluble in tissue culture medium.
In a standard assay, mouse fibroblast cells (ATCC CCL-1, L929), were cultured in Minimum Essential Medium, α-medium supplemented with 10% heat inactivated fetal bovine serum, L-glutamine, penicillin and streptomycin. Cells were trypsinized and counted under the microscope and seeded at 1.5×10^4 total cells per 100 μL per well of a flat-bottom 96-well plate in order to achieve ˜80% confluence after overnight incubation at 37° C. On the day of the assay, the tissue culture medium was removed and replaced with 30 μL of fresh medium.
Test articles were prepared as 2-fold serial dilutions and 170 μL of each dilution is added into each of 4-wells (total volume per well=200 μL). The test plate was then returned to the 37° C. incubator for 60 min. Immediately after the exposed time, test article from each well was replaced with 200 μL of fresh media. Plates were incubated at 37° C. for 18-20 hours. The following day growth medium was replaced with 100 μL/well of fresh medium containing 10 μL WST-8 reagent. Cells were incubated under growth conditions (5% CO2 at 37° C. humidified incubator), protected from light, until color development was achieved (usually 1-4 hours). Absorbance was read at 450 nm with reference wavelength at 750 nm using Molecular Device SpectraMax M5 plate reader. Untreated or vehicle only treated cells receiving WST-8 reagent served as positive cell proliferation controls.
The absorbance A450/750 from each well of untreated cells and from each well within the dilution series was measured. […] Next, a non-linear regression (curve fit) analysis was performed on all the absorbance data measured from the dilution series, including the absorbance data obtained from wells of the untreated control cells. For each dilution within the dilution series, an average A450/750 was calculated from the four replicate wells.

[5] = tested on: Pseudomonas aeruginosa (MCC 4438); assay: Antimicrobial activity (MBC), P. aeruginosa MCC 4438; conditions: 1 h exposure at room temperature
Procedure: as §1, §2

[6] = tested on: Staphylococcus aureus (ATCC 29213); assay: Antimicrobial activity (MBC), S. aureus ATCC 29213
Procedure: as §1, §2

[7] = tested on: Escherichia coli (ATCC 25922); assay: Antimicrobial activity (MBC), E. coli ATCC 25922
Procedure: as §1, §2

[8] = tested on: Candida albicans (MCC 50319); assay: Antimicrobial activity (MFC), C. albicans MCC 50319; conditions: 1 h exposure at room temperature
Procedure: as §1, §2

[9] = ATCC10231, C. albicans ATCC 10231, pH 4 (Sal), 1 h exposure at room temperature, read-out: Minimum Fungicidal Concentration (MFC) (≧99.9% kill)
[10] = ATCC29213, S. aureus ATCC 29213, pH 4 (Sal), 1 h exposure at room temperature, read-out: Minimum Bactericidal Concentration (MBC) (≧99.9% kill)
[11] = ATCC25922, E. coli ATCC 25922, pH 4 (Sal), 1 h exposure at room temperature, read-out: Minimum Bactericidal Concentration (MBC) (≧99.9% kill)

Row | SMILES | Minimum Bactericidal Concentration (MBC) (≧99.9% kill) ([1]; pH 4 (Sal)) [µg/mL] | Minimum Bactericidal Concentration (MBC) (≧99.9% kill) ([1]; pH 7 (PBS)) [µg/mL] | Minimum Bactericidal Concentration (MBC) (≧99.9% kill) ([2]; pH 4 (Sal)) [µg/mL] | Minimum Bactericidal Concentration (MBC) (≧99.9% kill) ([2]; pH 7 (PBS)) [µg/mL] | MFC [3, 9] [µg/mL] | CT50 (concentration that results in survival of 50% of the cells) ([4]; pH 4 (Sal)) [mM] | Minimum Bactericidal Concentration (MBC) (≧99.9% kill) ([5]; pH 4 (Sal)) [µg/mL] | Minimum Bactericidal Concentration (MBC) (≧99.9% kill) ([5]; pH 7 (PBS)) [µg/mL] | MBC [6, 10] [µg/mL] | MBC [7, 11] [µg/mL] | Minimum Fungicidal Concentration (MFC) (≧99.9% kill) ([8]; pH 4 (Sal)) [µg/mL] | Minimum Fungicidal Concentration (MFC) (≧99.9% kill) ([8]; pH 7 (PBS)) [µg/mL] | MFC ([3]; ATCC10231, 1 h, pH 4, read-out: Minimum Fungicidal Concentration (MFC) (≧99.9% kill)) [µg/mL] | CT50 (concentration that results in survival of 50% of the cells) ([4]; pH 7 (PBS)) [mM] | MBC ([6]; ATCC29213, 1 h, pH 4, read-out: Minimum Bactericidal Concentration (MBC) (≧99.9% kill)) [µg/mL] | MBC ([7]; ATCC25922, 1 h, pH 4, read-out: Minimum Bactericidal Concentration (MBC) (≧99.9% kill)) [µg/mL] | MFC ([3]; ATCC10231, C. albicans ATCC 10231, pH 7 (PBS), 1 h exposure at room temperature, read-out: Minimum Fungicidal Concentration (MFC) (≧99.9% kill)) [µg/mL] | MBC ([6]; ATCC29213, S. aureus ATCC 29213, pH 7 (PBS), 1 h exposure at room temperature, read-out: Minimum Bactericidal Concentration (MBC) (≧99.9% kill)) [µg/mL] | MBC ([7]; ATCC25922, E. coli ATCC 25922, pH 7 (PBS), 1 h exposure at room temperature, read-out: Minimum Bactericidal Concentration (MBC) (≧99.9% kill)) [µg/mL]
1 | CC[N+](C)(CC)CCC(C)(C)N(Cl)Cl.[Cl-] [Compound 21-114, 3-(Dichloroamino)-N,N-diethyl-N-3-dimethylbutan-1-ammonium chloride] | 2 | 512 | 4 | 512 | 16 | 1.3 | 4 | 1024 | 2 | 8 | – | – | – | – | – | – | – | – | –
2 | CC(C)(CC[N+]1(C)CCCCC1)N(Cl)Cl.[Cl-] [Compound 21-80, 1-(3-(Dichloroamino)-3-methylbutyl)-1-methylpiperidinium chloride] | 4 | 256 | 4 | >256 | 32 | 0.9 | 4 | >256 | 4 | 2 | 64 | >512 | – | – | – | – | – | – | –
3 | CC(C)(C[N+](C)(C)C)N(Cl)Cl [Compound 21-30, 2-(Dichloroamino)-N,N,N-2-tetramethylpropan-1-ammonium chloride] | 16 | 512 | 8 | 512 | – | 0.5 | – | – | – | – | 256 | >2048 | 128 | 0.5 | 8 | 16 | – | – | –
4 | CC(C)(CC[N+](C)(C)C)N(Cl)Cl.[Cl-] [Compound 21-32, 3-(Dichloroamino)-N,N,N-3-tetramethylbutan-1-ammonium chloride] | 8 | 256 | 1 | 256 | 64 | 1.7 | – | 512 | 2 | 2 | 32 | >1024 | – | 1.8 | – | – | > 4100 | 512 | 128
